# In patent US20070190539A1, “Human MLR single nucleotide polymorphisms associated with dose-dependent congestive heart failure and methods of use thereof” (Bristol-Myers Squibb Company, priority 2005, published 2007):
# Assay: Phase II clinical trials CV168-006 and CV168-008: diagnosis of congestive heart failure in patients treated with compound A
# Type: in vivo, human
# Experimental: Genomic DNA samples from patients enrolled in two Bristol-Myers Squibb Company Phase II clinical trials CV168-006 and CV168-008 trials were genotyped for 1 SNP identified in the human mineralocorticoid receptor gene (see Example 1) and evaluated for association with congestive heart failure.
# 498 subjects enrolled in the CV168-006 trial and 232 subjects from the CV168-008 trial were analyzed in this study. All analyses were based on data collected up to 24 weeks, which was the duration of the short-term phase of the trials. DNA was extracted from frozen blood by a third-party (Genaissance Inc, North Carolina) using a salting-out method (Gentra Systems). All subjects gave written informed consent.
# (§1) At the time of this analysis four individuals were diagnosed as having developed congestive heart failure. All four were in the CV168-006 trial; three were being treated with 10 mg of compound A and one with 20 mg of compound A. All SNPs that were analyzed above were also tested for association with CHF using contingency tables.
# Sample. Investigators in the BMS clinical trials diagnosed dose-dependent congestive heart failure in some subjects.
# Genomic DNA samples from patients enrolled in two Bristol-Myers Squibb Company Phase II clinical trials CV168-006 and CV168-008 trials were genotyped for 1 SNP identified in the human PPAR-gamma gene (see Example 7) and evaluated for association with congestive heart failure.
# as §1, with “CV 168-006” for “CV168-006”
# Genomic DNA samples from patients enrolled in two Bristol-Myers Squibb Company Phase II clinical trials CV168-006 and CV168-008 trials were genotyped for 1 SNP identified in the human Adiponectin gene (see Example 13) and evaluated for association with congestive heart failure.
smiles,measurement,setting,value
"COc1ccc(OC(=O)N(CC(=O)O)Cc2ccc(OCCc3nc(-c4ccccc4)oc3C)cc2)cc1 [compound A, N-[(4-methoxyphenoxy)carbonyl]-N-[[4-[2-(5-methyl-2-phenyl-4-oxazolyl)ethoxy]phenyl]methyl]glycine]",individuals who developed congestive heart failure while treated with 10 mg,"CV168-006 trial, 10 mg of compound A, data up to 24 weeks",three
same,individuals who developed congestive heart failure while treated with 20 mg,"CV168-006 trial, 20 mg of compound A, data up to 24 weeks",one
same,dose dependence of congestive heart failure (CHF),"Phase II trials, patients, high doses = 10 and 20 mg arms",observed only at high doses
same,individuals diagnosed as having developed congestive heart failure,"all subjects analysed (498 in CV168-006, 232 in CV168-008), data up to 24 weeks, all four cases in the CV168-006 trial",four
